Data on two compounds can be found in patent US20100009017A1, “Anticancer Methods Using Extracts of Anemarrhena asphodeloides Bunge” (BIONOVO, INC., priority 2008, published 2010).

Common to all, as to assay type: cell-based
Assay [1] has as its system REDD1. Put plainly: REDD1 induction in Du145 cells (FIG. 6). The note with it: Du145 prostate cancer cells; BN108 0.5 mg/mL, Timosaponin A3 7.5 μM. The procedure: FIG. 6. Pro-apoptotic gene REDD1 is induced in prostate cancer cell line Du145 by treatment with BN108 (0.5 mg/ml) and Timosaponin A3 (7.5 μM). Both BN108 and Timosaponin A3 induce the pro-apoptotic gene REDD1 in prostate cancer cells.

Assay [2] deals with BT474 cells. In words: Cell death in BT474 cells (FIG. 5, FIG. 15). As to conditions: for induction of cell death: BT474, 24 hr, BN108 0.5 mg/mL, Timosaponin A3 4 μg/mL, Timosaponin B2 50 μg/mL, lamarinase-treated Timosaponin B2 4 μg/mL. The procedure: FIG. 5. Effect of Timosaponins A3 and B2 on viability of breast cancer (BT474) and normal epithelial cells (MCF10A). Cells were treated with BN108 at 0.5 mg/ml, Timosaponin A3 at 4 μg/ml, or Timosaponin B2 at 50 μg/ml, inactivated lamarinase alone or lamarinase-treated B2 at 4 μg/ml for 24 hours.
FIG. 15. Conversion of Timosaponin B2 to Timosaponin A3 by lamarinase was confirmed by time of flight mass spectrometry (TOF MS). Disappearance of Timosaponin B2 and appearance of Timosaponin A3 results in an increase in cell death from 16% in the presence of inactivated lamarinase and Timosaponin B2 to 53% in the presence of activated lamarinase and Timosaponin B2.
The effect of Timosaponins A3 and B2 on the viability of breast cancer cells and normal epithelial cells was tested by treating cells with either 0.5 mg/mL BN108, 4 μg/mL Timosaponin A3, 50 μg/mL Timosaponin B2, inactivated lamarinase alone or lamarinase-treated Timosaponin B2 (4 μg/mL) for 24 hr. […] The difference in activity between Timosaponin A3 and lamarinase treated Timosaponin B2 is, on a molar basis, probably negligible, given that the quotient of the molecular weights of Timosaponin B2 (920 Da) and Timosaponin A3 (740 Da) is roughly equivalent to the ratio of the % dead cells in the Timosaponin A3 and the lamarinase-treated Timosaponin B2. Thus, it can be inferred that nearly all the Timosaponin B2 is converted into Timosaponin A3, and is active to induced apoptosis, in the presence of lamarinase.

Assay [3] concerns BT474 cells. Put plainly: FACScan propidium iodide / Annexin V viability and apoptosis (FIG. 9, table). The note with it: for cells surviving: BT474, 24 hours; for % Difference from control: control = DMSO. On the procedure:
FIG. 9. […] BT474 cells were treated for 24 hours, and percent of live cells was analyzed on FACScan based on permeability of dead cells for propidium iodide and binding of Annexin V.
The cytotoxic effects of BN108 and Timosaponin A3 are attenuated by cholesterol (CHL) and the caspase 4 inhibitor LEVD. […] Treatment of BT474 cells with […] cholesterol protected the cells from the effects of Timosaponin A3 and BN108, with about 80% of the cells surviving 24 hours in the presence of cholesterol (CHL).

In assay [4] the test system is MCF10A cells. In words: Cholesterol content of cell extracts (FIG. 8). As to conditions: normal (MCF10A) breast cells, through the first 8 hours after treatment. On the procedure: (§1) FIG. 8. Purified Timosaponin A3 and BN108 extract have similar effects on cholesterol synthesis on breast cancer cells MM23 and normal MCF10A cells. Cells were treated with either BN108 or TspA3 for indicated times, and cell extracts were analyzed for cholesterol content, which was normalized to the protein content.
(§2) BN108 and Timosaponin A3 had similar effects on cholesterol (CHL) synthesis in cancerous and normal cells.

Assay [5] deals with MM23 breast cancer cells. Put plainly: Cholesterol content of cell extracts (FIG. 8). As to conditions: cancerous (MM23) breast cells. On the procedure:
as §1, §2

Assay [6] concerns SREBP2. In words: SREBP2 activation in BT474 cells (FIG. 4B, FIG. 7). As to conditions: Timosaponin A3 5 μM, BN108 0.5 mg/mL. The procedure: FIG. 4. […] B. SREBP2 is activated by BN108 in both cell lines. Activated AKT was detected using antibody to phosphoserine 473 (Phospho-AKT) that is phosphorylated only in active kinase.
FIG. 7. Purified Timosaponin A3 and BN108 extract have similar effects on phosphorylation of eIF2a and on activation of SREBP2 as well as expression on SREBP2 target gene IDI1. BT474 cells were treated with TspA3 (5 μM) or BN108 (0.5 mg/ml).
In FIG. 4B, it can be seen that SREBP2 is activeated by BN108 in both the cancer cells (BT474) and the non-cancerous cells (MCF10A).
Both BN108 and Timosaponin A3 induce the pro-apoptotic gene REDD1 in prostate cancer cells.

For assay [7], the system named is eIF2a. In words: Phosphorylation of eIF2a in BT474 cells (FIG. 7). The note with it: Timosaponin A3 5 μM, BN108 0.5 mg/mL. The procedure: (§3) FIG. 7. Purified Timosaponin A3 and BN108 extract have similar effects on phosphorylation of eIF2a and on activation of SREBP2 as well as expression on SREBP2 target gene IDI1. BT474 cells were treated with TspA3 (5 μM) or BN108 (0.5 mg/ml). Both BN108 and Timosaponin A3 induce the pro-apoptotic gene REDD1 in prostate cancer cells.

The subject of assay [8] is cancer cells. Put plainly: Induction of apoptosis in vitro.
The subject of assay [9] is IDI1. Put plainly: Expression of SREBP2 target gene IDI1 in BT474 cells (FIG. 7). As to conditions: Timosaponin A3 5 μM, BN108 0.5 mg/mL. On the procedure: as §3
The subject of assay [10] is non-cancerous cells. Put plainly: Induction of apoptosis in vitro.

For `CC1CCC2(OC1)OC1CC3C4CCC5CC(OC6OC(CO)C(O)C(O)C6OC6OC(CO)C(O)C(O)C6O)CC[C@]5(C)C4CC[C@]3(C)[C@H]1[C@@H]2C` (stereo partly shown) [Timosaponin A3], the REDD1 gene induction result in assay [1] is on record as “induced”. Also, in assay [2], the “induction of cell death” value is listed as “induced cell death”. Besides, in assay [3], the “% Total apoptotic” value stood at 68%, the “% early apoptotic” value was 35%, the “% late apoptotic” value worked out at 33% and the cells surviving is on record as 40%. The “% Difference from control” value in assay [3] was 57%. Besides, the cells surviving entry in [3] (with 250 mM cholesterol (CHL)) was “about 80%”. In addition, the cholesterol synthesis result in assay [4] is “reduce cholesterol synthesis”. Further, the cholesterol synthesis entry in assay [5] was “increase cholesterol synthesis slightly”. The “expression of SREBP2” value in [6] is “increase expression of SREBP2”. For the same compound, the “phosphorylation of eIF2a” value in assay [7] is “increase phosphorylation of elF2a”. The induction of apoptosis result in [8] was “induces of apoptosis”. Besides, the “expression of IDI1” value in [9] was “increase expression of IDI1”. Moreover, the induction of apoptosis result in assay [10] is recorded as “does not induce apoptosis”.
With `C[C@@H](CCC1(O)O[C@H]2C[C@H]3[C@@H]4CC[C@@H]5C[C@@H](O[C@@H]6O[C@H](CO)[C@H](O)[C@H](O)[C@H]6O[C@@H]6O[C@H](CO)[C@@H](O)[C@H](O)[C@H]6O)CC[C@]5(C)[C@H]4CC[C@]3(C)[C@H]2[C@@H]1C)CO[C@@H]1O[C@H](CO)[C@@H](O)[C@H](O)[C@H]1O` (stereo partly shown) [Timosaponin B2], in assay [2], the “induction of cell death” value was “did not induce cell death”. Also, in assay [2] (in the presence of inactivated lamarinase (FIG. 15)), the cell death was determined as 16%. In addition, in assay [3], the “% Total apoptotic” value stood at 12%, the “% early apoptotic” value is on record as 7%, the “% late apoptotic” value turned out to be 5% and the “% Difference from control” value amounted to 1%. Further, the induction of apoptosis result in assay [8] is given as “does not induce apoptosis”.
